Laboratory results reported in US5919668A, “Non-reducing saccharide and its production and use” (Kabushiki Kaisha Hayashibara Seibutsu Kagaku Kenkyujo, priority 1994, dated 1999).
Entries after “also recorded” stand apart in the source; their conditions may differ.

Tests used:
[1] = Reducing power by the Somogyi-Nelson method, represented in terms of DE; format: physicochemical; settings: high-purity preparations, Somogyi-Nelson method
Procedure: The high-purity preparations of the newly formed saccharides were determined for reducing power by the Somogyi-Nelson method and represented in terms of DE.

[2] = system: glucoamylase; assay: Enzymatic hydrolysis by glucoamylase; format: biochemical; settings: for Molar ratio (glucose/trehalose): degradation product by glucoamylase; for Glucose in degradation product by glucoamylase / Trehalose in degradation product by glucoamylase: pH4.5, 40° C., 6 hours
Procedure: Fifty milligrams of the non-reducing saccharide preparation PI, PII, PIII, PIV or PV prepared in Experiment 4 was dissolved in 1 ml of 50 mM acetate buffer (pH4.5), added with one unit of the glucoamylase commercialized by Seikagaku Corp., Tokyo, Japan, incubated at 40° C. for 6 hours for enzymatic hydrolysis and analyzed for degradation products on high-performance liquid chromatography, thus detecting glucose and trehalose as sole products. The noted glucose contents, trehalose contents and their molar ratios were as shown in Table 5.

[3] = system: beta-amylase; assay: Degradation by beta-amylase; format: biochemical
Description: Considering the reaction characteristics of glucoamylase, these saccharides very likely bear structures where glucose molecule(s) is bound to trehalose molecule via alpha1,4 or alpha-1,6 linkage: Saccharide PI is a non-reducing saccharide with a glucose polymerization degree of 3 where one glucose molecule is bound to one trehalose molecule; saccharide PII, another non-reducing saccharide with a glucose polymerization degree of 4 where two glucose molecules are bound to one trehalose molecule; saccharide PIII, still another non-reducing saccharide with a glucose polymerization degree of 5 where three glucose molecules are bound to one trehalose molecule; saccharide PIV, still another non-reducing saccharide with a glucose polymerization degree of 6 where four glucose molecules are bound to one trehalose molecule; and saccharide PV, still another non-reducing saccharide with a polymerization degree of 7 where five glucose molecules are bound to one trehalose molecule.

[4] = system: pig pancreas alpha-amylase; assay: Degradation by pig pancreas alpha-amylase; format: biochemical; settings: for G1 (glucose) in degradation product by alpha-amylase / G2 (maltose) in degradation product by alpha-amylase / G3 (maltotriose) in degradation product by alpha-amylase / PI in degradation product by alpha-amylase / PII in degradation product by alpha-amylase: pH6.9, 37° C., 18 hours
Procedure: (§1) The non-reducing saccharide preparations PI, PII, PIII, PIV and PV as substrates prepared in Experiment 4 were subjected to pig pancreas alpha-amylase, rice alpha-glucosidase and acetone-pulverized rat small intestine enzyme, all of which were products of Sigma Chemical Co., St Louis, Mo., USA, and the degradation products were analyzed on high-performance liquid chromatography for saccharide composition. The reaction by alpha-amylase was carried out by dissolving 10 mg of either substrate in 1 ml of 50 mM phosphate buffer (pH6.9), adding thereto one unit of alpha-amylase and incubating at 37° C. for 18 hours. The reaction by alpha-glucosidase was conducted similarly as in the case of alpha-amylase except that 50 mM acetate buffer (pH4.0) was used. In the case of acetone-pulverized rat small intestine enzyme, the reaction was conducted similarly as in the case of alpha-amylase except that 50 mM maleic acid buffer (pH6.0) was used.

[5] = system: rice alpha-glucosidase; assay: Degradation by rice alpha-glucosidase; format: biochemical; settings: for Glucose in degradation product by alpha-glucosidase / Others in degradation product by alpha-glucosidase / Trehalose in degradation product by alpha-glucosidase: pH4.0, 37° C., 18 hours
Procedure: as §1

[6] = system: acetone-pulverized rat small intestine enzyme; assay: Degradation by acetone-pulverized rat small intestine enzyme; format: biochemical; settings: for Glucose in degradation product by acetone-powdered rat small intestine enzyme / Others in degradation product by acetone-powdered rat small intestine enzyme / Trehalose in degradation product by acetone-powdered rat small intestine enzyme: pH6.0, 37° C., 18 hours
Procedure: as §1

[7] = system: mice; assay: Acute toxicity test, oral administration in mice; format: in vivo; settings: oral, mice
Procedure: Acute toxicity tests were conducted on the non-reducing saccharide preparations PI, PII, PIII, PIV and PV prepared in Experiment 4, where they were orally administered to 7 week-old dd mice. […] Thus the LD50 of these saccharides was at least 50 g/kg or higher.
An acute toxicity test was conducted on a high-purity trehalose preparation obtained by the method in Experiment 17, purity of 99.5%, where it was orally administered in mice. […] Thus its LD50 would be briefly 50 g/kg or higher.

[8] = target: T1, trehalose-releasing enzyme (Rhizobium sp. M-11, UniProt Q53238); format: biochemical, Rhizobium species M-11; settings: for Composition: trehalose formed / Composition: reducing saccharide formed: 20% substrate, 2 units/g, 40° C., pH7.0, 48 hours; for Composition: reducing saccharide formed: glucose, maltose, maltotriose, maltotetraose or maltopentaose respectively; for Composition: residual substrate: trehalose-releasing enzyme, 48 h, pH 7
T1 construct: M-11, about 58-68 kDa
T1 sequence (Q53238 1-596): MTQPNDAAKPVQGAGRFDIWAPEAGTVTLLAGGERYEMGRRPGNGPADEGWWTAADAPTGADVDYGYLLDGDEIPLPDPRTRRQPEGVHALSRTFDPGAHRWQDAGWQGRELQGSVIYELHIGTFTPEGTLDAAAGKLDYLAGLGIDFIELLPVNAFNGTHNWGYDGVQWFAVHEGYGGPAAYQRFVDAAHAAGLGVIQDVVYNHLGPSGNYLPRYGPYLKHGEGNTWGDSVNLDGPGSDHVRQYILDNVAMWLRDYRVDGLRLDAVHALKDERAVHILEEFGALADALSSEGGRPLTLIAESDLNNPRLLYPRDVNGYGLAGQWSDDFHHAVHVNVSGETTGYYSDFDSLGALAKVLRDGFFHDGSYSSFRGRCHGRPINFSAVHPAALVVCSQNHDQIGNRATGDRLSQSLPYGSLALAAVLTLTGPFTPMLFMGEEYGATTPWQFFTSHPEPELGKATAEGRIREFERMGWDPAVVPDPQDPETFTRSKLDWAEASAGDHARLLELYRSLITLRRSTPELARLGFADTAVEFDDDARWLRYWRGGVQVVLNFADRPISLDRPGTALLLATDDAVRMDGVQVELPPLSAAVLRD
Procedure: Alpha-glycosyl trehaloses as substrates were prepared in accordance with the method described in Japanese Patent Application No. 349,216/93. More particularly, 20% aqueous solutions of maltotriose, maltotetraose, maltopentaose, maltohexaose or maltoheptaose as reducing partial starch hydrolysate were added with 2 units/g substrate solid of a purified non-reducing saccharide-forming enzyme obtained by the method in […], reacted at 40° C. and pH7.0 for 48 hours, heated for inactivation, filtered, deionized, concentrated in conventional manner and applied to ion exchange column chromatography on a strongly-acidic cation exchange "XT-1016" in sodium form. The ion exchange resin was packed in 3 jacketed-stainless steel columns, inner diameter of 2.0 cm, length of 1 m, and the columns were cascaded, loaded with 5 v/v % reaction saccharide liquid against the resin and injected with 55° C. water at SV0.13 for fractionation while keeping the temperature inside the columns at 55° C., thus obtaining high-purity preparations of non-reducing saccharides with glucose polymerization degrees of 3 or higher.
20% Aqueous solutions of these five types of non-reducing saccharides or alpha-glycosyl trehaloses were prepared, added with 2 units/g substrate solid of the purified trehalose-releasing enzyme obtained in Experiment 15, reacted at 40° C. and pH7.0 for 48 hours, deionized and subjected to high-performance liquid chromatography on "WAKO BEADS WB-T-330" for analysis of reaction products. As control, maltotriose, maltotetraose, maltopentaose, maltohexaose and maltoheptaose were subjected to the purified trehalose-releasing enzyme similarly as above and then analyzed on high-performance liquid chromatography.

SMILES	DE of saccharide preparation [1]	Degradation by glucoamylase (in words) [2]	Molar ratio (glucose/trehalose) [2]	Glucose in degradation product by glucoamylase [2] [%]	Trehalose in degradation product by glucoamylase [2] [%]	Degradation by beta-amylase (in words) [3]	Degradation by alpha-amylase (in words) [4]	G1 (glucose) in degradation product by alpha-amylase [4] [%]	G2 (maltose) in degradation product by alpha-amylase [4] [%]	G3 (maltotriose) in degradation product by alpha-amylase [4] [%]	PI in degradation product by alpha-amylase [4] [%]	PII in degradation product by alpha-amylase [4] [%]	Degradation by alpha-glucosidase (in words) [5]	Glucose in degradation product by alpha-glucosidase [5] [%]	Others in degradation product by alpha-glucosidase [5] [%]	Trehalose in degradation product by alpha-glucosidase [5] [%]	Degradation by acetone-pulverized rat small intestine enzyme (in words) [6]	Glucose in degradation product by acetone-powdered rat small intestine enzyme [6] [%]	Others in degradation product by acetone-powdered rat small intestine enzyme [6] [%]	Trehalose in degradation product by acetone-powdered rat small intestine enzyme [6] [%]	also measured
OC[C@H]1O[C@H](O[C@H]2O[C@H](CO)[C@@H](O[C@H]3O[C@H](CO)[C@@H](O[C@H]4O[C@H](CO)[C@@H](O[C@H]5O[C@H](CO)[C@@H](O)[C@H](O)[C@H]5O)[C@H](O)[C@H]4O)[C@H](O)[C@H]3O)[C@H](O)[C@H]2O)[C@H](O)[C@@H](O)[C@@H]1O [PIII, alpha-maltotriosyl trehalose]	0.10	three glucose molecules and one trehalose molecule	3.02	61.4	38.6	degraded into one maltose molecule and one saccharide PI molecule	degraded by alpha-amylase into smaller oligosaccharides	1.2	33.0	0	61.0	4.8	degradable	61.7	0.2	38.1	degradable	62.0	0.4	37.6	Animal death at the possible highest dose [7]: no animal death was observed; Composition: trehalose formed [8]: 39.5%; Composition: reducing saccharide formed [8]: 60.0%; Composition: residual substrate [8]: 0.5%
OC[C@H]1O[C@H](O[C@H]2O[C@H](CO)[C@@H](O[C@H]3O[C@H](CO)[C@@H](O[C@H]4O[C@H](CO)[C@@H](O)[C@H](O)[C@H]4O)[C@H](O)[C@H]3O)[C@H](O)[C@H]2O)[C@H](O)[C@@H](O)[C@@H]1O [PII, alpha-maltosyl trehalose]	0.35	two glucose molecules and one trehalose molecule; also recorded: one trehalose molecule and two glucose molecules	2.06	52.0	48.0	not degraded	hardly degraded by alpha-amylase	0	0.8	0.4	0	98.8	degradable	52.1	0.3	47.6	degradable	52.5	0.4	47.1	Animal death at the possible highest dose [7]: no animal death was observed; Composition: trehalose formed [8]: 44.3%; Composition: reducing saccharide formed [8]: 44.4%; Composition: residual substrate [8]: 11.3%
OC[C@H]1O[C@H](O[C@H]2O[C@H](CO)[C@@H](O[C@H]3O[C@H](CO)[C@@H](O)[C@H](O)[C@H]3O)[C@H](O)[C@H]2O)[C@H](O)[C@@H](O)[C@@H]1O [PI, alpha-glucosyl trehalose]	0.83	degraded by glucoamylase into one glucose molecule and one trehalose molecule	1.07	36.2	63.8	not degraded	hardly degraded by alpha-amylase	0	0.4	2.3	97.3	0	degradable	36.5	0.5	63.0	degradable	37.2	0.4	62.4	Animal death at the possible highest dose [7]: no animal death was observed; Composition: trehalose formed [8]: 17.5%; Composition: reducing saccharide formed [8]: 6.5%; Composition: residual substrate [8]: 76.0%
